Source: publication PMC12523147, “Thyroid hormone receptor beta signaling is a targetable driver of prostate cancer growth” (Molecular Cancer, 2025)
pKi: −log10 of the molar value.

Target: T1, thyroid hormone receptor β (TRβ) (Homo sapiens, UniProt P10828)
T1 construct: gene THRB
Assay: biochemical

T1 sequence (P10828 whole entry): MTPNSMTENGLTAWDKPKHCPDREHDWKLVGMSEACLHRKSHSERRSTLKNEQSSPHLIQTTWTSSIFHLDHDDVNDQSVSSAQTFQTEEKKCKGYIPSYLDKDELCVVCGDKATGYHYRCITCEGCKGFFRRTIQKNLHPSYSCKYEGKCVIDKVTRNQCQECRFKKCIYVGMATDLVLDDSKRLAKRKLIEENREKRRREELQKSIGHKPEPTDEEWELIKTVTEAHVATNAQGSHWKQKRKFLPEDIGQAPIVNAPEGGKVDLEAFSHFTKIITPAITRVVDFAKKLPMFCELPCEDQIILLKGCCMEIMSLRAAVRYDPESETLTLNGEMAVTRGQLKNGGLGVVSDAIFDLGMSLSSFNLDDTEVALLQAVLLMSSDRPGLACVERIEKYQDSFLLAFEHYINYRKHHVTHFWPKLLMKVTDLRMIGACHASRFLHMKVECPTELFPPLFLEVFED

Cc1cc(OCC(=O)O)cc(C)c1Cc1cc(C#Cc2ccc([N+](=O)[O-])cc2)c(O)c(C(C)C)c1 [NH-3]
pKi: 8.88
